The source of these data is patent US20090176968A1, “Preparation of Triazole Containing Metal Chelating Agents” (PAUL SCHERRER INSTITUT, priority 2006, published 2009).

Broadly, the melting point is the temperature, or range, at which the solid turns liquid. Regarding `NC(Cc1cn(Cc2ccccc2)nn1)C(=O)O` (stereo not drawn) [Compound L1], the melting point is > 195 °C (dec.).
As to `CCOC(=O)Cn1cc(C[C@H](N)C(=O)O)nn1` [Compound L3], the melting point lay within 272 to 274 °C.
On to `N[C@@H](Cn1cc(Cc2ccccc2)nn1)C(=O)O` [Compound L7], for which the melting point is > 220 °C (dec.).
